Laboratory results published in the NIST ThermoML archive (doi:10.1016/j.jct.2012.05.010).
± gives the expanded uncertainty stated by the source.

Assay: refractive index (Na D-line) (dimensionless)
Settings: 293.1 K; 101.33 kPa; Liquid; Standard Abbe refractometry

SMILES | refractive index
CCCCCCCCCCCCCC [tetradecane] | 1.4289 ± 0.0004
CCCCCCCCCCCC [dodecane] | 1.422 ± 0.0004
CCCCn1cc[n+](C)c1.F[P-](F)(F)(F)(F)F [1-butyl-3-methylimidazolium hexafluorophosphate] | 1.3803 ± 0.0005
CCCc1ccccc1 [propylbenzene] | 1.4915 ± 0.0004
